Assay results taken from patent publication US8247170B2, “Detection of penicillin tolerance in Group B Streptococcus: single nucleotide polymorphisms in penicillin binding protein 4” (priority 2008, dated 2012).

Tested on: GBS laboratory strains
Experiment: MBC90:MIC90 ratio method of determining antibiotic tolerance
Type: cell-based, Group B Streptococcus
Details: for Phenotype: by MBC:MIC ratio; for MBC: 24 h, ≧90% non-viable cells, plate counts after 24 h antibiotic; for MIC: ≧90% growth-inhibited, OD600
Experimental: The inventors ascertained the incidence of antibiotic tolerance in GBS clinical isolates collected from cervicovaginal-rectal swabs, by investigating cell wall inhibitors used to eliminate GBS colonization in pregnant women before delivery as stated by the CDC guidelines. A ratio of the minimum bactericidal concentration (MBC) over minimum inhibitory concentration (MIC) after 24 h of antibiotic incubation or by determining quantitative kill curves has been used to define antibiotic tolerance previously.
The MBC:MIC ratio was calculated for laboratory strains using three β-lactam antibiotics (Penicillin G, Ampicillin, and Cefazolin) and a glycopeptide antibiotic (Vancomycin) (Table 1). Early-log phase cultures of GBS were treated with the individual antibiotics at a concentration of 0.25 to 512×MIC90. The optical density (OD600) of antibiotic treated cultures was used to determine the MIC90 after 24 h and a cell count was used to determine their MBC90. Susceptible, tolerant and intermediate strains were defined by their MBC:MIC ratio of ≦2:1, ≧32:1 and 4:1-16:1 respectively. […] The ratios characterized GBS strains A909 and 2603V/R as Susceptible, O90R as Tolerant, and NEM316 as Intermediate to Penicillin, Ampicillin, and Cefazolin. All four strains were susceptible to Vancomycin.
(I) Bacterial Strains and Culture Conditions. GBS strains A909 (serotype IA), 515 (serotype IA), NEM316 (serotype III), COHI (serotype III), 2603V/R (serotype V) and O90R (non-typable) were used in this study. E. coli Top10 cells were used for the recombination experiments. GBS was cultured in Todd Hewitt broth (THB) or Tryptic Soy 5% sheep blood (TS) media and E. coli in Luria-broth (LB) medium or agar. Antibiotics were used at the following concentrations: for GBS—penicillin G (MIC90 0.06 μg ml^−1), ampicillin (MIC90 0.12 μg ml^−1), vancomycin (MIC90 2 μg ml^−1), cefazolin (MIC90 1 μg ml^−1) and chloramphenicol (5 μg ml^−1); for E. coli—ampicillin (50 μg ml^−1) and chloramphenicol (5 μg ml^−1). Both GBS and E. coli cultures were grown at 37° C. (II) Tolerance Using the MBC:MIC Ratio Method. Three GBS laboratory strains (i.e., A909, NEM316, and O90R) were cultured overnight for 18 h at 37° C. in THB. Subcultures in THB were subsequently grown to exponential phase (OD600˜0.3; i.e. 5×10^5 cfu/ml) at 37° C. Cell cultures were then exposed to different concentrations of antibiotics (Penicillin G, Ampicillin, Cefozolin or Vancomycin). […] Cell cultures were dispersed every 18 h before OD600 was measured to determine the lowest concentration of antibiotic with 90% growth inhibition (MIC90). Antibiotic treated cells (8 μl) from each well were re-suspended into PBS (100 μl) and plated (54 μl) on TS agar plates and allowed to grow for an additional 24 h at 37° C. Cell count was performed to determine the lowest concentration of antibiotic with 90% killing of original inoculums (MBC90). (III) Penicillin Killing and Regrowth Tolerance Assay by Microbroth Dilution. Three GBS laboratory strains (i.e., A909, NEM316, and O90R) were cultured overnight for 18 h at 37° C. in THB. Subcultures in THB were subsequently grown to exponential phase (OD600˜0.3) at 37° C. Cell cultures were then exposed to different concentrations of Penicillin G (Sigma, St. Louis, Mo.). […] Cell cultures were dispersed. A 1:20 dilution of cells was re-plated into new wells containing fresh THB with 500 U Penase (to degrade residual penicillin). Cell cultures were allowed to re-grow for an additional 24 h at 37° C. before the OD600 was measured. (IV) Measuring Cell Viability by Determining ATP Concentration. GBS strains were cultured for 18 h at 37° C. in THB. These cells were inoculated into fresh THB and subsequently allowed to grow to exponential phase (OD600 0.25-0.3) at 37° C. One ml of each culture was centrifuged at 5,000×g for 4 min. The cell pellet was re-suspended in ATP-free water. […]

[1] = Streptococcus, GBS strain 2603V/R
[2] = Streptococcus, GBS strain NEM316

CC1(C)S[C@@H]2[C@H](NC(=O)Cc3ccccc3)C(=O)N2[C@H]1C(=O)O [Penicillin G]
Ratio (MBC90:MIC90) (GBS strain 2603V/R): 1
Phenotype (GBS strain 2603V/R): S (MBC:MIC ratio of ≦2:1)
Phenotype (GBS strain 2603V/R, listed as Penicillin): Susceptible
Ratio (MBC90:MIC90) (GBS strain A909): 1
Phenotype (GBS strain A909): S (MBC:MIC ratio of ≦2:1)
Phenotype (GBS strain A909, listed as Penicillin): Susceptible
Ratio (MBC90:MIC90) (GBS strain NEM316): 8
Phenotype (GBS strain NEM316): I (4:1-16:1)
Phenotype (GBS strain NEM316, listed as Penicillin): Intermediate
Ratio (MBC90:MIC90) (GBS strain O90R): 32
Phenotype (GBS strain O90R): PT (≧32:1)
Phenotype (GBS strain O90R, listed as Penicillin): Tolerant
MBC [1]: 0.06 µg/mL
MBC (Streptococcus, GBS strain A909): 0.06 µg/mL
MBC [2]: 0.48 µg/mL
MBC (Streptococcus, GBS strain O90R): 3.84 µg/mL
MIC [1]: 0.06 µg/mL
MIC (Streptococcus, GBS strain A909): 0.06 µg/mL
MIC [2]: 0.06 µg/mL
MIC (Streptococcus, GBS strain O90R): 0.12 µg/mL
MIC90 (Streptococcus, for GBS, as stated under culture conditions): 0.06 µg/mL
